According to ChEMBL document CHEMBL5236590, “Discovery of Novel N-(5-(Pyridin-3-yl)-1H-indazol-3-yl)benzamide Derivatives as Potent Cyclin-Dependent Kinase 7 Inhibitors for the Treatment of Autosomal Dominant Polycystic Kidney Disease” (J Med Chem, 2022):
Activity calls are given as the source filed them. No cut-off for these calls is given here.

Legend:
[1] = Observed MRT (infinitive) in ICR mouse at 5 mg/kg, iv single dose measured upto 24 hrs; type: ADME, organism-based; settings: in vivo
[2] = Apparent permeability across basolateral to apical side in human Caco-2 cells measured after 120 mins by LC-MS/MS analysis; type: ADME, cell-based
[3] = Observed AUC (infinitive) in ICR mouse at 5 mg/kg, iv single dose measured upto 24 hrs; type: ADME, organism-based; set-up: dose 5 mg/kg, time < 24 hrs, route iv; settings: in vivo
[4] = molecular target: Ephrin type-B receptor 4 (Homo sapiens) (UniProt P54760); experiment: Inhibition of human partial length wild type EphB4 (H585/G892) expressed in bacterial system at 1 uM by KINOMEscan analysis relative to control
[5] = molecular target: Cyclin-dependent kinase 9 (Homo sapiens, UniProt P50750); experiment: Inhibition of CDK9 (unknown origin)
[6] = AUClast in ICR mouse at 5 mg/kg, iv single dose measured upto 24 hrs; type: ADME, organism-based; set-up: dose 5 mg/kg, time < 24 hrs, route iv; settings: in vivo
[7] = Observed MRT (infinitive) in ICR mouse at 5 mg/kg, sc single dose measured upto 24 hrs; type: ADME, organism-based; settings: in vivo
[8] = molecular target: Cyclin-dependent kinase 12 (Homo sapiens, UniProt Q9NYV4); experiment: Inhibition of CDK12 (unknown origin)
[9] = molecular target: Platelet-derived growth factor receptor beta (Homo sapiens) (UniProt P09619); experiment: Inhibition of human partial length wild type PDGFRbeta V582/Y1009 expressed in bacterial system at 1 uM by KINOMEscan analysis relative to control
[10] = molecular target: Casein kinase I isoform gamma-1 (Homo sapiens) (UniProt Q9HCP0); experiment: Inhibition of human partial length wild type CKlgamma1 (T15/S353) expressed in bacterial system at 1 uM by KINOMEscan analysis relative to control
[11] = Tmax in ICR mouse at 5 mg/kg, sc single dose measured upto 24 hrs; type: ADME, organism-based; settings: in vivo
[12] = molecular target: Ribosomal protein S6 kinase alpha-4 (Homo sapiens) (UniProt O75676); experiment: Inhibition of human partial length wild type MSK2 expressed in bacterial system at 1 uM by KINOMEscan analysis relative to control
[13] = molecular target: Glycogen synthase kinase-3 beta (Homo sapiens) (UniProt P49841); experiment: Inhibition of human full length GSK3beta expressed in mammalian system at 1 uM by KINOMEscan analysis relative to control
[14] = molecular target: Tyrosine-protein kinase receptor TYRO3 (Homo sapiens) (UniProt Q06418); experiment: Inhibition of RSE (unknown origin) at 1 uM relative to control
[15] = molecular target: Serine/threonine-protein kinase 17A (Homo sapiens) (UniProt Q9UEE5); experiment: Inhibition of human partial length wild type DRAK1 expressed in bacterial system at 1 uM by KINOMEscan analysis relative to control
[16] = molecular target: Serine/threonine-protein kinase PAK 2 (Homo sapiens) (UniProt Q13177); experiment: Inhibition of human partial length wild type PAK2 (P151/R525) expressed in bacterial system at 1 uM by KINOMEscan analysis relative to control
[17] = molecular target: Tyrosine-protein kinase Fyn (Homo sapiens) (UniProt P06241); experiment: Inhibition of human partial length wild type Fyn (T243/L534) expressed in bacterial system at 1 uM by KINOMEscan analysis relative to control
[18] = molecular target: Ephrin type-A receptor 5 (Homo sapiens) (UniProt P54756); experiment: Inhibition of human partial length wild type EphA5 (T627/V930) expressed in bacterial system at 1 uM by KINOMEscan analysis relative to control
[19] = molecular target: Calcium/calmodulin-dependent protein kinase type 1 (Homo sapiens) (UniProt Q14012); experiment: Inhibition of human partial length wild type CaMKI expressed in bacterial system at 1 uM by KINOMEscan analysis relative to control
[20] = Efflux ratio of apparent permeability in human Caco-2 cells after 120 mins by LC-MS/MS analysis; type: ADME, cell-based
THP-1 = experiment: Cytotoxicity against human THP-1 cells assessed as cell viability measured after 24 hrs by CCK-8 assay; type: functional, cell-based; settings: THP-1, 24 h
Homo sapiens = species: Homo sapiens; experiment: Inhibition of P13 Kinase p120gamma (unknown origin) at 1 uM relative to control
[21] = molecular target: RAF proto-oncogene serine/threonine-protein kinase (Homo sapiens) (UniProt P04049); experiment: Inhibition of human partial length wild type c-RAF (I330/T640) expressed in bacterial system at 1 uM by KINOMEscan analysis relative to control
Mus musculus [22] = experiment: Reduction in AMPD3 protein expression in kidney-specific Pkd1 knockout ADPKD mouse model assessed as protein expression in cyst-lining epithelial cell at 5 mg/kg by Western blot analysis; type: functional, organism-based
[23] = molecular target: Protein kinase C theta type (Homo sapiens) (UniProt Q04759); experiment: Inhibition of human partial length TPKCtheta (L350/S706) expressed in bacterial system at 1 uM by KINOMEscan analysis relative to control
[24] = molecular target: Aurora kinase A (Homo sapiens) (UniProt O14965); experiment: Inhibition of human partial length Aurora-A (E122/K401) expressed in mammalian system at 1 uM by KINOMEscan analysis relative to control
[25] = molecular target: Cyclin-dependent kinase 6 (Homo sapiens, UniProt Q00534); experiment: Inhibition of CDK6 (unknown origin)
[26] = Half life in ICR mouse at 5 mg/kg, sc single dose measured upto 24 hrs; type: ADME, organism-based; settings: in vivo
[27] = molecular target: Serine/threonine-protein kinase mTOR (Homo sapiens) (UniProt P42345); experiment: Inhibition of human partial length wild type mTOR (L1382/W2549) expressed in mammalian system at 1 uM by KINOMEscan analysis relative to control
[28] = molecular target: Mitogen-activated protein kinase kinase kinase 5 (Homo sapiens) (UniProt Q99683); experiment: Inhibition of human partial length wild type ASK1 expressed in bacterial system at 1 uM by KINOMEscan analysis relative to control
[29] = Observed clearance in ICR mouse at 5 mg/kg, iv single dose measured upto 24 hrs; type: ADME, organism-based; settings: in vivo
Mus musculus [30] = experiment: Reduction in cyst formation in kidney-specific Pkd1 knockout ADPKD mouse model assessed as renal cystic index at 5 mg/kg by HE staining analysis; type: functional, organism-based
[31] = molecular target: Cyclin-dependent kinase 1 (Homo sapiens, UniProt P06493); experiment: Inhibition of CDK1 (unknown origin)
[32] = molecular target: Mitogen-activated protein kinase 14 (Homo sapiens) (UniProt Q16539); experiment: Inhibition of full length human recombinant SAPK2a at 1 uM by radiometric assay
[33] = molecular target: MAP kinase-activated protein kinase 5 (Homo sapiens) (UniProt Q8IW41); experiment: Inhibition of human partial length wild type PRAK (M1/D322) expressed in mammalian system at 1 uM by KINOMEscan analysis relative to control
[34] = molecular target: Serine/threonine-protein kinase Chk1 (Homo sapiens) (UniProt O14757); experiment: Inhibition of human partial length wild type CHK1 expressed in bacterial system at 1 uM by KINOMEscan analysis relative to control
[35] = molecular target: 5'-AMP-activated protein kinase catalytic subunit alpha-1 (Homo sapiens) (UniProt Q13131); experiment: Inhibition of human partial length AMPKalphal (M1/E306) expressed in bacterial system at 1 uM by KINOMEscan analysis relative to control

Sequence of Serine/threonine-protein kinase Chk1 (Homo sapiens) (O14757 whole entry): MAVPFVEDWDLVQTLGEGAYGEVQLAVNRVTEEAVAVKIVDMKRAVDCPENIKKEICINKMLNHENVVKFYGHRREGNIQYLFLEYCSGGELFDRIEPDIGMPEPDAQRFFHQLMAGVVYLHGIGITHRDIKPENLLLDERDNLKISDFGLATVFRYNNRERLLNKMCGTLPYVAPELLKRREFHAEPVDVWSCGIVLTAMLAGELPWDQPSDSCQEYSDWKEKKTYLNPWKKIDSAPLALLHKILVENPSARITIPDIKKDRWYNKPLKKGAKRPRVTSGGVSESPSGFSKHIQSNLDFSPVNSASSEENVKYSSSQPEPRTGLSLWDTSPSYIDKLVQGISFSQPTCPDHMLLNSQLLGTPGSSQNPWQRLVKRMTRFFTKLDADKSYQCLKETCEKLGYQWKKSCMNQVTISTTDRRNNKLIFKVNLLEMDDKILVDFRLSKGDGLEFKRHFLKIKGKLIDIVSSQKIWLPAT
Sequence of Platelet-derived growth factor receptor beta (Homo sapiens) (P09619 whole entry, canonical isoform): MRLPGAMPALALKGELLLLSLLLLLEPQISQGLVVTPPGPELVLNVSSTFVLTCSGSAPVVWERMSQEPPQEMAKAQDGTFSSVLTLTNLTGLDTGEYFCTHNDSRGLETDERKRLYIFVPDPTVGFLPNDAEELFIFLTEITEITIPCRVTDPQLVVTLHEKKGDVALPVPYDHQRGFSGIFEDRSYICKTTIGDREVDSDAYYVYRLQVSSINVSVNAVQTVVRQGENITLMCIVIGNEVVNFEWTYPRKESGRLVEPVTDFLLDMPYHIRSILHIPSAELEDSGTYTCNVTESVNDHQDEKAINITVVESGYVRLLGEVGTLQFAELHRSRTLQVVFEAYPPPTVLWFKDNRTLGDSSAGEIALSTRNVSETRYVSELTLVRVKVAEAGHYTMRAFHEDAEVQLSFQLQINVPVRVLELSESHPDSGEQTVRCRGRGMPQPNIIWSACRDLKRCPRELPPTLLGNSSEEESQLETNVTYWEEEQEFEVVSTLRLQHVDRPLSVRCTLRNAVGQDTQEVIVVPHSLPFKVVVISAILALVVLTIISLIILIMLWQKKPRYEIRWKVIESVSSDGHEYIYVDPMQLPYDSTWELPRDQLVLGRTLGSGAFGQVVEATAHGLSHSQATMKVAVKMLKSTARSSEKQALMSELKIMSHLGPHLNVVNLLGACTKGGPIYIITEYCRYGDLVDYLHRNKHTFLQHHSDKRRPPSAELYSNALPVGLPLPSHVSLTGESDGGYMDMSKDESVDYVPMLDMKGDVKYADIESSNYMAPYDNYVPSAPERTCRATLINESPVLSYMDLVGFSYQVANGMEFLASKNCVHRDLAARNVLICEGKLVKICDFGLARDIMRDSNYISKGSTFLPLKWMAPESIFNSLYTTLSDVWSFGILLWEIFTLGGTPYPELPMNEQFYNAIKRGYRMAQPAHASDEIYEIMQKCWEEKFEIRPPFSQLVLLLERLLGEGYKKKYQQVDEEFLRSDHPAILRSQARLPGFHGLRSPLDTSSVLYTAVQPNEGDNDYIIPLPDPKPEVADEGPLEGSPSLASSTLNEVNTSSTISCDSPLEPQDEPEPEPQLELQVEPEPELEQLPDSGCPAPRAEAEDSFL
Sequence of Ephrin type-A receptor 5 (Homo sapiens) (P54756 whole entry): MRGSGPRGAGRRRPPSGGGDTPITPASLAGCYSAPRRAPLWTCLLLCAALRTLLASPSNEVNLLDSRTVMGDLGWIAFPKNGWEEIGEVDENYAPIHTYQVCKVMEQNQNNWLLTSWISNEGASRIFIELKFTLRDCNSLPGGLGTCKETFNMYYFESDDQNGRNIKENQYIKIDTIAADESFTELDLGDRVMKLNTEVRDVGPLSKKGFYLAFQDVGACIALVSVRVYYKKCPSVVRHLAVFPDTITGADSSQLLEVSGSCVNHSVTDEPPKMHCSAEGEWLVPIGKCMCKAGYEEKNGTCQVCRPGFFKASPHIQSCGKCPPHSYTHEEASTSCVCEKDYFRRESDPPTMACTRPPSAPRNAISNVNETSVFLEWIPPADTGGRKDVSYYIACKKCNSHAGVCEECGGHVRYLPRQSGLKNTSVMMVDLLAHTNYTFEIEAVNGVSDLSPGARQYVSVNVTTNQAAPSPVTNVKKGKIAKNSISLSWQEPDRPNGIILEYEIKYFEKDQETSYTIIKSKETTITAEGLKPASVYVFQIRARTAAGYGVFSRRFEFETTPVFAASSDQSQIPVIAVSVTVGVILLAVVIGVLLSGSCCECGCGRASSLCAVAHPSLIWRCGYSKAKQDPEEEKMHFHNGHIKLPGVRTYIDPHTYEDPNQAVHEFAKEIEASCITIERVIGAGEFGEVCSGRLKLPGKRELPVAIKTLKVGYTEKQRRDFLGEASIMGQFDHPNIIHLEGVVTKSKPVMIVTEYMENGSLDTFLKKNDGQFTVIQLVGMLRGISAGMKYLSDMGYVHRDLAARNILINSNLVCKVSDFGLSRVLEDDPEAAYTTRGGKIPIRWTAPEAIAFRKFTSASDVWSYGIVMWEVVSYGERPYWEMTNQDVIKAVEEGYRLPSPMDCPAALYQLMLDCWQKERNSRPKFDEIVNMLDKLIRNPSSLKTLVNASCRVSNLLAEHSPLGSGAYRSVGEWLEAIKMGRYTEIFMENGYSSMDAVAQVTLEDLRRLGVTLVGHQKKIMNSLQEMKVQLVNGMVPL
Sequence of Casein kinase I isoform gamma-1 (Homo sapiens) (Q9HCP0 whole entry, looked up, canonical isoform): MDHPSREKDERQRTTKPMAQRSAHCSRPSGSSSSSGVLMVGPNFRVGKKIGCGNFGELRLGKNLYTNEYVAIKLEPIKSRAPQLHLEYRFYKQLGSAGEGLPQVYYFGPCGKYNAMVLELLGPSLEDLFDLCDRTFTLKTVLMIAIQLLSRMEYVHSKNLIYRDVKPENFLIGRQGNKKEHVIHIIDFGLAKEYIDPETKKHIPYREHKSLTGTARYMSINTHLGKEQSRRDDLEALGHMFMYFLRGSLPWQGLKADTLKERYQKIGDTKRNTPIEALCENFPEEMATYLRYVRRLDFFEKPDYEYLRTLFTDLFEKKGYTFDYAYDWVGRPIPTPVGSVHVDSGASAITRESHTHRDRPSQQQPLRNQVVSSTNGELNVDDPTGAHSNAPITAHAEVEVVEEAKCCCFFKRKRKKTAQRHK
Sequence of Calcium/calmodulin-dependent protein kinase type 1 (Homo sapiens) (Q14012 whole entry, looked up): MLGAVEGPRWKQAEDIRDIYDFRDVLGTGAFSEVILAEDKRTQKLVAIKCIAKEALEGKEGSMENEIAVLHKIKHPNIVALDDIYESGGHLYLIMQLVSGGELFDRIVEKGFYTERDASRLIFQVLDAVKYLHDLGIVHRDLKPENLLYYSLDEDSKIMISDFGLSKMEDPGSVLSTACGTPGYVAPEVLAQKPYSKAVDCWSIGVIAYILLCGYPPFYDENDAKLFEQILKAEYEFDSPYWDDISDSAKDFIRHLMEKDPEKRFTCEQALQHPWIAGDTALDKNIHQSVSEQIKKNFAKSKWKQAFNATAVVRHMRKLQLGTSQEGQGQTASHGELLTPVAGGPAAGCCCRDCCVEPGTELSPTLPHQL
Sequence of Cyclin-dependent kinase 1 (P06493 whole entry): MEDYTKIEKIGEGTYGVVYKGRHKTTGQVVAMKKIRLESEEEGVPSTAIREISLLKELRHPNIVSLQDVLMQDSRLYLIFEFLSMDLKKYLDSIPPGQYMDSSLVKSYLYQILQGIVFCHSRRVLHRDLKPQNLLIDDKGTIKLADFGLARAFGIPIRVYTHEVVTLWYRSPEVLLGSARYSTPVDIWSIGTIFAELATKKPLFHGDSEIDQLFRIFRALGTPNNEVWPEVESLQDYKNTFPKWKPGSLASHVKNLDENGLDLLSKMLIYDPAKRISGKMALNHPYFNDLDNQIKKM
Sequence of Tyrosine-protein kinase receptor TYRO3 (Homo sapiens) (Q06418 whole entry): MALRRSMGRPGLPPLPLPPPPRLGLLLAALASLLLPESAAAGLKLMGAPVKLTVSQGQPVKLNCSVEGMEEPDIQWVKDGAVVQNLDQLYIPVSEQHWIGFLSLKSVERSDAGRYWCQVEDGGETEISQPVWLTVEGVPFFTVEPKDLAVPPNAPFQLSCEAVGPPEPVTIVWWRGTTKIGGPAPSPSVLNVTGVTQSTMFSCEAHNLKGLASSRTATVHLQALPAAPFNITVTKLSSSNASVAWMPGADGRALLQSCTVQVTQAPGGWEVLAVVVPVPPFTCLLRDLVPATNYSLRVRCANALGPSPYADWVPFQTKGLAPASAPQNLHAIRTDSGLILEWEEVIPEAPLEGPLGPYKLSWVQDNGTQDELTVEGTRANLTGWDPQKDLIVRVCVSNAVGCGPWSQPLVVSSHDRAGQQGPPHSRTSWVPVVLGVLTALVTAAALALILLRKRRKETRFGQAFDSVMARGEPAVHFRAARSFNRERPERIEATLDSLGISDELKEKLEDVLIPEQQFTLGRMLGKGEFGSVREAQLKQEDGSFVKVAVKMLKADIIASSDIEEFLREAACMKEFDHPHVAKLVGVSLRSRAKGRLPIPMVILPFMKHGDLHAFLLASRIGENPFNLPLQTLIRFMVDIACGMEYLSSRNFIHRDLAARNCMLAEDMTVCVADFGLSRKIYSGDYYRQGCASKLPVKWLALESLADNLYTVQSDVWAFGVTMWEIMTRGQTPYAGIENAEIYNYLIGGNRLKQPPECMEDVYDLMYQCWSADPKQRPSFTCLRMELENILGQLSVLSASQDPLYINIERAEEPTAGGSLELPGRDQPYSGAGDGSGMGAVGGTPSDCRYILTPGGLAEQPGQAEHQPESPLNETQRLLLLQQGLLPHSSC
Sequence of Cyclin-dependent kinase 9 (P50750 whole entry): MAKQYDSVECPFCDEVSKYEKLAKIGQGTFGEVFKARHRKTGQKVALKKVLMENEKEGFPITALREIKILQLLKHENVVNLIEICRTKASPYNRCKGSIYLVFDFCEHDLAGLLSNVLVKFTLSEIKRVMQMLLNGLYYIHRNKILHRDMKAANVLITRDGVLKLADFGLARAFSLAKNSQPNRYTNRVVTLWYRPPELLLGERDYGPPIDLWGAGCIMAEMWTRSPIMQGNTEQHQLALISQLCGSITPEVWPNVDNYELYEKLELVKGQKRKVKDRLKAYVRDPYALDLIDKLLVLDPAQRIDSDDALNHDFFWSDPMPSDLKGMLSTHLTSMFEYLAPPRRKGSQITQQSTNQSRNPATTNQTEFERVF

## C=CC(=O)Nc1ccc(C(=O)Nc2n[nH]c3ccc(-c4cncc(NC[C@@H](O)c5ccccc5)c4)cc23)cc1
[1]
  MRT inf: 10 h
[2]
  Papp B→A at 2 h: 6 ×10⁻⁶ cm/s
[3]
  AUC(0-inf): 31700 ng·h/mL
[4]
  inhibition: < 50%
[5]
  IC50: 0.526 µM
[6]
  AUC(0-t) at 24 h: 26900 ng·h/mL
[7]
  MRT inf: 5 h
[8]
  IC50: > 10 µM
[9]
  inhibition: < 50%
[10]
  inhibition: < 50%
[11]
  Tmax: 1 h
[12]
  inhibition: < 50%
[13]
  inhibition: 99%
[14]
  inhibition: < 50%
[15]
  inhibition: 66%
[16]
  inhibition: < 50%
[17]
  inhibition: < 50%
[18]
  inhibition: < 50%
[19]
  inhibition: < 50%
[20]
  efflux ratio at 2 h: > 48
THP-1
  IC50: 13 µM
Homo sapiens
  inhibition: < 50%
[21]
  inhibition: < 50%
Mus musculus [22]
  Activity: Active
[23]
  inhibition: 74%
[24]
  inhibition: 68%
[25]
  IC50: 0.95 µM
[26]
  half-life: 3 h
[27]
  inhibition: < 50%
[28]
  inhibition: < 50%
[29]
  clearance: 3 mL/min/kg
Mus musculus [30]
  Activity: Active
[31]
  IC50: 3.37 µM
[32]
  inhibition: < 50%
[33]
  inhibition: < 50%
[34]
  inhibition: < 50%
[35]
  inhibition: 79%
